Results taken from ChEMBL document CHEMBL1201862, “PubChem BioAssay data set” (2004).
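Protocol summary: plate cells (96-well), add compound at 5 concentrations, incubate 48 h, interpolate endpoints linearly. Here, GI50 denotes the concentration required for 50% inhibition of growth.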 Activity calls are given as the source filed them. Cut-off read from the data, not from the text of the source: active = GI50 up to about 1.1 µM and inactive = higher.

What was measured:
Assay in all cases: NCI anticancer screen, dose series, 48 h
A549 = test system: A549
M14 = test system: M14
EKVX = test system: EKVX
U-251 = test system: U-251
SNB-75 = test system: SNB-75
IGROV-1 = test system: IGROV-1
NCI-H226 = test system: NCI-H226
OVCAR-3 = test system: OVCAR-3
UACC-62 = test system: UACC-62
HL-60 = test system: HL-60
SN12C = test system: SN12C
HCT-15 = test system: HCT-15
RPMI-8226 = test system: RPMI-8226
HT-29 = test system: HT-29
RXF 393 = test system: RXF 393
SW-620 = test system: SW-620
UACC-257 = test system: UACC-257
HCT-116 = test system: HCT-116
SF-539 = test system: SF-539
HCC 2998 = test system: HCC 2998

Structure (SMILES)	GI50 (A549)	GI50 (M14)	GI50 (EKVX)	GI50 (U-251)	GI50 (SNB-75)	GI50 (IGROV-1)	GI50 (NCI-H226)	GI50 (OVCAR-3)	GI50 (UACC-62)	GI50 (HL-60)	GI50 (SN12C)	GI50 (HCT-15) [µM]	GI50 (RPMI-8226)	GI50 (HT-29)	GI50 (RXF 393)	GI50 (SW-620)	GI50 (UACC-257)	GI50 (HCT-116)	GI50 (SF-539)	GI50 (HCC 2998)
c1ccc2c(c1)c1ccccc1n2Cn1c2ccccc2c2ccccc21	> 100 µM (inactive)	> 100 µM (inactive)	> 100 µM (inactive)	> 100 µM (inactive)	30.8 µM (inactive)	> 100 µM (inactive)	> 100 µM (inactive)	> 100 µM (inactive)	> 100 µM (inactive)	> 100 µM (inactive)	> 100 µM (inactive)	> 100	> 100 µM (inactive)	> 100 µM (inactive)	> 100 µM (inactive)	> 100 µM (inactive)	> 100 µM (inactive)			
CCOC(=O)C1C(O)CC2c3ccccc3-c3ccccc3C21 (centres undefined)	44.9 µM (inactive)	> 100 µM (inactive)	> 100 µM (inactive)	23.8 µM (inactive)	27.1 µM (inactive)	47.1 µM (inactive)	3.2 µM (inactive)	> 100 µM (inactive)	44.4 µM (inactive)	> 100 µM (inactive)	> 100 µM (inactive)	> 100	> 100 µM (inactive)	68.1 µM (inactive)	29.3 µM (inactive)	48.4 µM (inactive)	> 100 µM (inactive)	19.8 µM (inactive)		
Cc1c(-c2cc3n(n2)C(c2cccs2)C(C#N)=C(c2ccccc2)N3)c(=O)n(-c2ccccc2)n1C (centres undefined)	> 100 µM (inactive)		> 100 µM (inactive)	32.7 µM (inactive)	> 55.1 µM (inactive)	87.7 µM (inactive)	> 100 µM (inactive)	> 100 µM (inactive)	> 100 µM (inactive)	48.9 µM (inactive)	> 80.2 µM (inactive)	84.1		43.7 µM (inactive)	37.4 µM (inactive)	> 100 µM (inactive)	49.2 µM (inactive)	> 75.7 µM (inactive)	> 100 µM (inactive)	> 100 µM (inactive)
C=C[C@H]1CN2CCc3c([nH]c4cc(O)ccc34)[C@@H]2C[C@@H]1C[C@H]1c2[nH]c3ccccc3c2CCN1C	5.53 µM (inactive)	1.74 µM (inactive)	7.62 µM (inactive)	1.77 µM (inactive)	2.11 µM (inactive)	1.85 µM (inactive)	18.7 µM (inactive)	4.39 µM (inactive)	4.19 µM (inactive)	1.04 µM (active)	4.79 µM (inactive)	2.54		2.48 µM (inactive)		1.92 µM (inactive)	1.95 µM (inactive)	2.42 µM (inactive)	1.82 µM (inactive)	1.76 µM (inactive)
CCc1cc2c(oc3cc4ccccc4cc32)c(=O)[nH]1	> 10 µM (inactive)	> 10 µM (inactive)	> 10 µM (inactive)		> 10 µM (inactive)	> 10 µM (inactive)	> 10 µM (inactive)	> 10 µM (inactive)		> 10 µM (inactive)	> 10 µM (inactive)	> 10		> 10 µM (inactive)	> 10 µM (inactive)	> 10 µM (inactive)	> 10 µM (inactive)	> 10 µM (inactive)	> 10 µM (inactive)	> 10 µM (inactive)
O=S(=O)(/N=C(\NO)Nc1ccc(Cl)cc1)c1ccc(-c2ccccn2)s1	61 µM (inactive)	56.1 µM (inactive)	34.3 µM (inactive)	44.4 µM (inactive)	50.7 µM (inactive)	38.5 µM (inactive)	90.8 µM (inactive)	4.03 µM (inactive)	44.2 µM (inactive)	24 µM (inactive)	24.4 µM (inactive)	39.7		82.8 µM (inactive)	19 µM (inactive)	48.1 µM (inactive)	34 µM (inactive)	38.6 µM (inactive)	41.4 µM (inactive)	
CCC1(C)NN=c2s/c(=C/c3ccc(OC)cc3)c(=O)n2N1 (centres undefined)	> 100 µM (inactive)	> 100 µM (inactive)	> 100 µM (inactive)	> 100 µM (inactive)	38.2 µM (inactive)	> 100 µM (inactive)	> 100 µM (inactive)	80.4 µM (inactive)	> 100 µM (inactive)		> 100 µM (inactive)			> 100 µM (inactive)	49.4 µM (inactive)	> 100 µM (inactive)		> 100 µM (inactive)	90.6 µM (inactive)	> 100 µM (inactive)
CCN(CC)CCSc1nc(-c2c[nH]c3nc(C)ccc3c2=O)n[nH]1	> 100 µM (inactive)	> 100 µM (inactive)	> 100 µM (inactive)	> 100 µM (inactive)		> 100 µM (inactive)	> 100 µM (inactive)	> 100 µM (inactive)	> 100 µM (inactive)	> 100 µM (inactive)	> 100 µM (inactive)	> 100	> 100 µM (inactive)	> 100 µM (inactive)	> 100 µM (inactive)	> 100 µM (inactive)	> 100 µM (inactive)	> 100 µM (inactive)		
CSC1=N/C(=C\c2ccccc2)C(=O)N1CN1CCCCC1	87.7 µM (inactive)	61.7 µM (inactive)	51.1 µM (inactive)	72.6 µM (inactive)	56.1 µM (inactive)	38.7 µM (inactive)	35.7 µM (inactive)	> 100 µM (inactive)	58.3 µM (inactive)		> 100 µM (inactive)	> 10	27.4 µM (inactive)	22.5 µM (inactive)		44.4 µM (inactive)		33.2 µM (inactive)		
Cc1ccc(S(=O)(=O)N/N=C2\C=CC3(CC2)C(=O)N(I)c2ccccc23)cc1 (centres undefined)	> 100 µM (inactive)	> 100 µM (inactive)	> 100 µM (inactive)	> 100 µM (inactive)	> 100 µM (inactive)		> 100 µM (inactive)	> 100 µM (inactive)	> 100 µM (inactive)		> 100 µM (inactive)	> 100	39.3 µM (inactive)	> 100 µM (inactive)	15.1 µM (inactive)	> 100 µM (inactive)	> 100 µM (inactive)	87.5 µM (inactive)	11 µM (inactive)	> 100 µM (inactive)
C=CNC(=S)n1nc(-c2ccccc2NC(=O)C(F)(F)F)c(=O)n(C(=S)NC=C)c1=S		34.6 µM (inactive)	22.3 µM (inactive)	34.9 µM (inactive)	26 µM (inactive)	54 µM (inactive)	21.2 µM (inactive)	13.3 µM (inactive)	45.8 µM (inactive)		48.9 µM (inactive)	16.4		18.6 µM (inactive)	73.6 µM (inactive)	59.8 µM (inactive)		> 100 µM (inactive)		47.9 µM (inactive)
O=C(N/N=C/c1cc(-c2ccccc2Cl)c(-c2ccccc2Cl)o1)c1ccncc1	> 100 µM (inactive)	> 100 µM (inactive)	> 100 µM (inactive)		81.7 µM (inactive)	> 100 µM (inactive)	> 100 µM (inactive)	43.9 µM (inactive)	> 100 µM (inactive)	89.7 µM (inactive)	> 100 µM (inactive)		23.6 µM (inactive)	80.5 µM (inactive)	> 100 µM (inactive)	> 100 µM (inactive)	> 100 µM (inactive)	> 100 µM (inactive)	> 100 µM (inactive)	
